Publication PMC5485613, “A novel TRPM8 agonist relieves dry eye discomfort” (BMC Ophthalmology, 2017)

Molecular target: T1, human TRPA1 (Homo sapiens, UniProt O75762)
T1 construct: expressed in transfected cells; host or cells: KNRK cells (rat kidney), transiently transfected
Experiment: TRPA1 calcium imaging (Fura-2) in transfected KNRK cells
Assay type: cell-based
Details: 10 μM
Procedure: To further examine the specificity of C3, tests were conducted on TRPV1 channels and TRPA1 channels expressed in Kirsten murine sarcoma virus transformed rat kidney (KNRK) cells. KNRK cells were cultured as a monolayer and maintained in Dulbeccos’s Modified Eagles’s Medium (Life Technologies), supplemented with 10% fetal bovine serum (Life Technologies), 100 units/mL penicillin and 100 μg/mL streptomycin, in an incubator of 5% CO2 at 37 °C. After suspension, the cells were coated on cover slips for 12 h, then transiently transfected with cDNA (pc3.1 DNA) for TRPV1 or TRPA1 with Lipofectamine 2000 (Invitrogen) for 24 h, and loaded with Fura-2 AM™ (Molecular Probes) for 40 min at 37 °C. After washing and recovery, KNRK cells were imaged at 340 and 380 nm excitation to detect free calcium influx. An increase of 50% of the 340/380 ratio was considered as the response threshold which were measured under masked conditions for plasmids. Compounds were applied to the bath and calcium response was acquired by an inverted Nikon fluorescence microscope with a CoolSnap HQ2 CCD camera (Photometrics, Tucson, AZ). Data were quantified offline with the Nikon-NIS program.

T1 sequence (O75762 whole entry): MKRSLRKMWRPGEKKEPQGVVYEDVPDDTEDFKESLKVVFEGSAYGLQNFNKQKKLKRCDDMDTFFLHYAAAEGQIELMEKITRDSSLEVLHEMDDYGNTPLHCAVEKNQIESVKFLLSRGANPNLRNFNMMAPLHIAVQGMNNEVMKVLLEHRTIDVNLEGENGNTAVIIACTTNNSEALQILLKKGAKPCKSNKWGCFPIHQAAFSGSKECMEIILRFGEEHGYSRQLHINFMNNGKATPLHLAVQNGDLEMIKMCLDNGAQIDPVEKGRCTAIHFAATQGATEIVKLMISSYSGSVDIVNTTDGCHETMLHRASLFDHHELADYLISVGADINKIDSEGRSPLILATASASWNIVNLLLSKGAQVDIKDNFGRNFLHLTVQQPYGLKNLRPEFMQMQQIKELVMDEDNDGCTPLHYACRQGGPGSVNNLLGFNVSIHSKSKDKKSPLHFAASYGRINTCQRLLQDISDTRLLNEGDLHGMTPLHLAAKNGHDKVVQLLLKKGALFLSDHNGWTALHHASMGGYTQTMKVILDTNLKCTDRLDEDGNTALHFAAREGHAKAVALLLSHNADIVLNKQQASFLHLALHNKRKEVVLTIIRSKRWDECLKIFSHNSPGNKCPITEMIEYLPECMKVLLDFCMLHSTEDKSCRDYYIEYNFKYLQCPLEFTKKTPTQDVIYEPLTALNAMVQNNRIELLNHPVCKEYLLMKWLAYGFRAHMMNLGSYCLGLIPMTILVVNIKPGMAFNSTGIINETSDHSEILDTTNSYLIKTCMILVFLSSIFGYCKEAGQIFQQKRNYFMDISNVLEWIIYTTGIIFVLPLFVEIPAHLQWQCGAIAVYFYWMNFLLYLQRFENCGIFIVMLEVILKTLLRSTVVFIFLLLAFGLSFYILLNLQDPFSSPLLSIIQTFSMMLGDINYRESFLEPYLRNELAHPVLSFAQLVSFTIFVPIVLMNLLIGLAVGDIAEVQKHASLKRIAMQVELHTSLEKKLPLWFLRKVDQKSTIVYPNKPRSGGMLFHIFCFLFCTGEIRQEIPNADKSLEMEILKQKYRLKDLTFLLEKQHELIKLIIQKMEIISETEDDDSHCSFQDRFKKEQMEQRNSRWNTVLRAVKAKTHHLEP

- activation of TRPA1 (calcium response): inactive
SMILES: CCCCCCCCCP(=O)(C(C)C)C(C)C [C3, 1-diisopropylphosphorylnonane]
